Laboratory results from patent publication US20130090494A1, “TETRAKIS[BIS(DIHYDROXYPHOSPHORYL)METHYL]CALIX[4]ARENE OR ITS SODIUM SALT THEREOF AS FIBRIN POLYMERIZATION INHIBITORS” (priority 2010, published 2013).
Entries after “also recorded” stand apart in the source; their conditions may differ. Where a name gives a salt, the structure may show the parent alone.

Experiments:
[1] = target: T1, desAABB fibrin monomer polymerization (Homo sapiens, UniProt P02671+P02675+P02679); test: Turbidity analysis of desAABB fibrin monomer polymerization; type: biochemical; settings: for final (maximum) turbidity of fibrin clot (Δh) / lag-time (τ) / maximum rate of fibrin polymerization (Vmax): desAABB fibrin polymerization medium, 0.5 μM, FIG. 2
T1 construct: DesAABB fibrin monomer was prepared in 0.02 M acetic acid was prepared during reaction fibrinogen+thrombin; The fibrinogen was prepared by sodium sulfate precipitation from human plasma; from tissue; host or cells: human blood plasma; fibrinogen converted with thrombin
T1 sequence (P02671 36-866 limits assumed): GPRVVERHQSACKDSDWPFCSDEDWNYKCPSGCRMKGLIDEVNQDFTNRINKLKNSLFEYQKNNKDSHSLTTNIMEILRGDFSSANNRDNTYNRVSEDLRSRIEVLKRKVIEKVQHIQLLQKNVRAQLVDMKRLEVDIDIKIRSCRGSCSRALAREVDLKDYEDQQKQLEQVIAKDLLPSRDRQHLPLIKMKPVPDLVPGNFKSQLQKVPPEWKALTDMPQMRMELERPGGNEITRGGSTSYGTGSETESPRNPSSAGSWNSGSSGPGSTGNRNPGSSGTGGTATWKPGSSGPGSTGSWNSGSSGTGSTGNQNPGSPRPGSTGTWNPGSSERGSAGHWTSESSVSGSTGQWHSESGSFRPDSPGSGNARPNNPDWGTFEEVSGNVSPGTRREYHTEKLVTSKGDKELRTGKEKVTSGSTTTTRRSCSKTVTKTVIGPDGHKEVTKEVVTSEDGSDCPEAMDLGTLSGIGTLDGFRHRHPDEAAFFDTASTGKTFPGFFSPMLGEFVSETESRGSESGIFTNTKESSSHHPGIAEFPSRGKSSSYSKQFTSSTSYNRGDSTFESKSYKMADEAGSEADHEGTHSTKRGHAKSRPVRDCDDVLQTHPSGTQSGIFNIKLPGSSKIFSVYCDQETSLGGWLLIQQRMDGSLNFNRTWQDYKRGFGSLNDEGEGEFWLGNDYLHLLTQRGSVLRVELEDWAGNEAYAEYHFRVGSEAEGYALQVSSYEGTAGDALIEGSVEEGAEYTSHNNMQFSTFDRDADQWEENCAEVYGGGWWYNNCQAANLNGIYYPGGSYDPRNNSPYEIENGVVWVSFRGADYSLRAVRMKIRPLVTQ
T1 sequence (P02675 45-491 limits assumed): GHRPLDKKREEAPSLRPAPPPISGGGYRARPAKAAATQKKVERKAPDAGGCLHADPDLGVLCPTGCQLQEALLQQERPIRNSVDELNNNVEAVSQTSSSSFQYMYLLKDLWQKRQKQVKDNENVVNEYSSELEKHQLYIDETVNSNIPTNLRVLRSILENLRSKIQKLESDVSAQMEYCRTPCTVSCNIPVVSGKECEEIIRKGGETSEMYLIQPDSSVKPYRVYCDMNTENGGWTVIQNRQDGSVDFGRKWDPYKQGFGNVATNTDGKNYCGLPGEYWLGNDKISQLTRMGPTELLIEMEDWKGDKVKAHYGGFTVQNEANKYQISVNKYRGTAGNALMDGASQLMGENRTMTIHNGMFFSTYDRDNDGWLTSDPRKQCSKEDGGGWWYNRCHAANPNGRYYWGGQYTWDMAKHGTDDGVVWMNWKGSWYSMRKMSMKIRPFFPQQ
T1 sequence (P02679 27-453): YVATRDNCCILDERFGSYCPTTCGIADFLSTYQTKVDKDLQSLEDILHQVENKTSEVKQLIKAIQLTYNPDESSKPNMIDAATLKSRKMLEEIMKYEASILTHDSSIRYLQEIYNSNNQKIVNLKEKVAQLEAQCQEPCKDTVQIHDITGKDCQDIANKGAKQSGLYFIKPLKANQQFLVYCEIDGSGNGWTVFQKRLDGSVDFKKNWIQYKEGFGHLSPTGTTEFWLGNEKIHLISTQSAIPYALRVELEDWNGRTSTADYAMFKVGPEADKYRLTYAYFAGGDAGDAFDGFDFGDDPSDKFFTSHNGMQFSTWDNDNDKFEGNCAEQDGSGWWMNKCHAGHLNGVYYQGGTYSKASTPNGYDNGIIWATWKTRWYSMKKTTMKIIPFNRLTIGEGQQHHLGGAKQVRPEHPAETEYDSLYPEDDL
Procedure: (§1) The fibrin polymerization by the action of thrombin on fibrinogen consists of two reactions: 1) thrombin-catalyzed conversion of fibrinogen to fibrin and 2) polymerization of the fibrin monomer to form three-dimensional network, which is the framework of thrombus.
(§2) The turbidity analysis of desAABB fibrin polymerization and of fibrin polymerization in the fibrinogen+thrombin reaction in the present and the absent of declared calixarenes C-192 and C-145
(§3) The fibrinogen was prepared by sodium sulfate precipitation from human plasma. DesAABB fibrin monomer was prepared in 0.02 M acetic acid was prepared during reaction fibrinogen+thrombin [10]. Polymerization of fibrin desAA and desAABB was studied in the polymerization medium containing at a low concentration thrombin at pH 5.3 [7]. In the experience of the system fibrinogen+thrombin in polymerization medium to add declared calixarene C-192 at a concentration of 0.5 mM.
The declared calixarene C-192 and C-145 was added on the desAABB fibrin polymerization medium at a concentration of 0.5 μM.

[2] = target: T2, fibrin polymerization (Homo sapiens, UniProt P02671+P02675+P02679); test: Turbidity analysis of fibrin polymerization (system not specified); type: biochemical; settings: applicant's own experiments
T2 sequence (P02671 20-644 isoform P02671-2 limits assumed): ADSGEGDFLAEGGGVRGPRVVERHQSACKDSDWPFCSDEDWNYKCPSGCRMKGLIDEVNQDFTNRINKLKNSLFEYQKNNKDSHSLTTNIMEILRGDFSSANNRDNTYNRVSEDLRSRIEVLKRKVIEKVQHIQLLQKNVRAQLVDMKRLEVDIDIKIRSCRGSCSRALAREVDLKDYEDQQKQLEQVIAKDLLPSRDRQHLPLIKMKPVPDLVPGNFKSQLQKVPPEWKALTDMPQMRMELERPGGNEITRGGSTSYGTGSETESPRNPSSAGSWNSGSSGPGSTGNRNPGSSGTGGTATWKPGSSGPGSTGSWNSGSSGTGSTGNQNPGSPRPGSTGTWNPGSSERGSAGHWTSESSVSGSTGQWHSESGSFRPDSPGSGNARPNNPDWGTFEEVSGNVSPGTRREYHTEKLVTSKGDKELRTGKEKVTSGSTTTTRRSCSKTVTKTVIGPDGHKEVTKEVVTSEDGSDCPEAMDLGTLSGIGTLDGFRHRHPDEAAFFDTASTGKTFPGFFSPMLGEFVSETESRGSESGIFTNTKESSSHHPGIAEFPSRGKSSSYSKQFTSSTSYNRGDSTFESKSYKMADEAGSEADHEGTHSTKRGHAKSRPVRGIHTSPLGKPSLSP
T2 sequence (P02675 45-491 limits assumed): T1 sequence (P02675 45-491 limits assumed)
T2 sequence (P02679 27-437 isoform P02679-2 limits assumed): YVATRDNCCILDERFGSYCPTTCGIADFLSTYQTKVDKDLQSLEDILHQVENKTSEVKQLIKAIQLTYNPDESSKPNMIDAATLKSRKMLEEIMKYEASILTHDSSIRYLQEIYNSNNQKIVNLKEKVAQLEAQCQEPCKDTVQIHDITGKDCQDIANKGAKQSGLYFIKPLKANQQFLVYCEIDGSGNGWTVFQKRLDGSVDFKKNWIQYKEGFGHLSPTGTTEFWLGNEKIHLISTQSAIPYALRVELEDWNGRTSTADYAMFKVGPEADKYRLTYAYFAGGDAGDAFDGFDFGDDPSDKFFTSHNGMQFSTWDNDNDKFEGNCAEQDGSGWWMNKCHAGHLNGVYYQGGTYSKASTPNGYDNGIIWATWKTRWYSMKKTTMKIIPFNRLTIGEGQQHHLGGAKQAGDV
From the text: Furthermore, because of electro neutrality of the declared calixarene-145 molecule, it may be more suitable for injection to a living organism as an inhibitor of fibrin polymerization and the process of blood clotting, as well.

[3] = system: human blood plasma coagulation (outer pathway); test: Prothrombin time (PT) of human blood plasma
Procedure: (§4) The measuring of prothrombin time (PT) and activated partial thromboplastin time (APTT) for coagulation of human plasma in the presence of calixarene C-192.
(§5) The effects of calixarene C-192 on the coagulation of human blood plasma were studied using a coagulometer (CT 2410 ‘Solar’, Belarus).
Using coagulometer measured the prothrombin ratio, which is calculated using the formula: […]
where: PR—prothrombin ratio; PTe—prothrombin time in the investigating blood plasma; PTc—prothrombin time in the control blood plasma.
The prothrombin time were calculated using the method. The dissolved calixarene C-192 at concentration of 50 μM was added to cuvette in the experience. The prothrombin ratio calculating by formula (I) equals 1.6.

[4] = target: T3, fibrin protofibril formation (Homo sapiens, UniProt P02671+P02675+P02679); test: Transmission electron microscopy of fibrin formed in the thrombin-fibrinogen reaction; type: biochemical; settings: 50000 magnification, FIG. 4
T3 construct: The fibrinogen was prepared by sodium sulfate precipitation from human plasma; from tissue; host or cells: human blood plasma
T3 sequence (P02671 20-644 isoform P02671-2 limits assumed): T2 sequence (P02671 20-644 isoform P02671-2 limits assumed)
T3 sequence (P02675 45-491 limits assumed): T1 sequence (P02675 45-491 limits assumed)
T3 sequence (P02679 27-437 isoform P02679-2 limits assumed): T2 sequence (P02679 27-437 isoform P02679-2 limits assumed)
From the text: The study of desAABB fibrin polymerization in the thrombin-fibrinogen reaction by transmission electron microscopy in the present and the absent of declared calixarenes C-192 and C-145
The analysis of the electron micrographs of the fibrin formed in the fibrinogen+thrombin reaction at different time intervals after the polymerization process beginning in the absence of calixarene C-192 (FIG. 4, A and B) and in the presence of calixarene C-192 (FIG. 4, C, D).
The samples of polymerizing fibrin produced in the thrombin-fibrinogen reaction in the absence or the presence of calixarene C-192 were taken out of the reaction medium at various times, placed on a carbon-coated grid for 2 min and then stained with 1% (w/v) uranyl acetate for 1 min. Transmission electron microscopy was performed with an H-600 electron microscope (Hitachi, Tokyo, Japan). Electron micrographs were obtained at −50 000 magnification.

[5] = Acute toxicity in healthy adult mice; settings: mouse, in vivo, oral; healthy adult mice, perorally
[6] = system: mice; test: Acute toxicity in healthy adult mice; settings: mouse, in vivo
[7] = target: T4, fibrin polymerization in the thrombin-fibrinogen reaction (Homo sapiens, UniProt P02671+P02675+P02679); test: Turbidity analysis of fibrin polymerization in the thrombin-fibrinogen reaction; type: biochemical
T4 construct: The fibrinogen was prepared by sodium sulfate precipitation from human plasma; from tissue; host or cells: human blood plasma
T4 sequence (P02671 20-644 isoform P02671-2 limits assumed): T2 sequence (P02671 20-644 isoform P02671-2 limits assumed)
T4 sequence (P02675 45-491 limits assumed): T1 sequence (P02675 45-491 limits assumed)
T4 sequence (P02679 27-437 isoform P02679-2 limits assumed): T2 sequence (P02679 27-437 isoform P02679-2 limits assumed)
Procedure: as §1, §2, §3

[8] = system: human blood plasma coagulation (internal pathway); test: Activated partial thromboplastin time (APTT) of human blood plasma
From the text: as §4, §5
The activated partial thromboplastin time calculated by the method. In the APTT-test comparing the formation of the fibrin clot in control samples: pure blood plasma specimens and blood plasma, in which the solute of calixarene C-192 at concentration of 50 μM. The prothrombin ratio Calculated by formula (1) equals 5.4.

[9] = normal human blood plasma, FIG. 3
[10] = fibrinogen+thrombin system, C-192 at 0.5 mM, FIG. 1

Row | Structure (SMILES) | final (maximum) turbidity of fibrin clot (Δh) ([1]; listed as C-145) | lag-time (τ) ([1]; listed as C-145) | maximum rate of fibrin polymerization (Vmax) ([1]; listed as C-145) | IC50 [2] | concentration that doubles the prothrombin time (PT) [3, 9] | prothrombin ratio (PR=PTe/PTc) ([3]; prothrombin time, human plasma, 50 μM) | effect on fibrin polymerization stage seen by electron microscopy [4] | LD50 [5] | toxicity class [6] | final turbidity of fibrin clot (Δh) [7, 10] | lag-time (τ) [7, 10] | maximum rate of fibrin polymerization (Vmax) [7, 10] | IC50 ([7]; turbidity analysis, thrombin-fibrinogen reaction) | final (maximum) turbidity of fibrin clot (Δh) ([1]; listed as C-192) | lag-time (τ) ([1]; listed as C-192) | maximum rate of fibrin polymerization (Vmax) ([1]; listed as C-192) | IC50 ([1]; fibrin monomer polymerization) | prothrombin ratio calculated by formula (1) in the APTT-test ([8]; APTT-test, human plasma, 50 μM) | concentration that doubles the APTT [8, 9]
1 | O=P(O)(O)C(c1cc2c(O)c(c1)Cc1cc(C(P(=O)(O)O)P(=O)(O)O)cc(c1O)Cc1cc(C(P(=O)(O)O)P(=O)(O)O)cc(c1O)Cc1cc(C(P(=O)(O)O)P(=O)(O)O)cc(c1O)C2)P(=O)(O)O [calixarene C-145, octasodium salt of 5,11,17,23-tetrakis [bis](dihydroxyphosphoryl)methyl calix[4]arene] | significantly decreased | increases; also recorded: increased significantly | significantly decreased | 2.5 µM | – | – | – | – | – | – | – | – | – | – | – | – | – | – | –
2 | O=P(O)(O)C(c1cc2c(O)c(c1)Cc1cc(C(P(=O)(O)O)P(=O)(O)O)cc(c1O)Cc1cc(C(P(=O)(O)O)P(=O)(O)O)cc(c1O)Cc1cc(C(P(=O)(O)O)P(=O)(O)O)cc(c1O)C2)P(=O)(O)O [calixarene C-192, 5,11,17,23-tetrakis[bis(dihydroxyphosphoryl)methyl]calix[4]arene] | – | – | – | – | 7.0·10^−5 M | 1.6 | inhibits the first stage of fibrin polymerization protofibril formation; also recorded: inhibits the first stage of fibrin polymerization protofibril building | 780 mg/kg | median toxic compound | decreased; also recorded: reduced | increases; also recorded: significantly increased | significantly decreased; also recorded: greatly reduced | 0.5 µM | decreased | increased significantly | decreased | 1 µM | 5.4 | 1.7·10^−5 M
